In patent US12239705B2, “Therapeutic mitigation of epithelial infection” (priority 2018, dated 2025):

How the values were obtained:
[1] = system: PHFK cells; test: Cell viability of differentiated PHFK by LDH and WST-1 assay; conditions: PHFK differentiated 2 days; 24 hours
Description: Briefly, PHFK cells were differentiated for 2 days in the same manner described above. […] Cell viability was measured by LDH and WST-1 assay 24 hours later.

[2] = system: PHFK cells; test: TEER barrier function of IL-4/13-treated PHFK exposed to P6; assay type: cell-based, human; conditions: PHFK in IL-4 and IL-13 for two days; 50 or 100 nM; versus DMSO control
Description: TEER was taken daily. Data was normalized to Th2 treated samples (n=5-7 donors for TEER (SEM)). Significance was tested versus a DMSO control.

[3] = system: vaccinia virus; test: Vaccinia virus plaque formation in IL-4/13-treated PHFK exposed to P6; assay type: cell-based; conditions: PHFK in IL-4 and IL-13; 50 or 200 nM; 200 pfu VV; three days post infection; n=7 donors

Q: What does the source list for `CC(C)(C)c1nc2c3cc[nH]c(=O)c3c3cc(F)ccc3c2[nH]1` [P6, Pyridone 6]?
A: concentration not toxic to keratinocytes (LDH and WST-1) [1]: ≥ 1 µM; barrier function (TEER normalized to Th2 treated samples) [2]: improved barrier function in keratinocytes in a dose dependent manner; keratinocyte susceptibility to viral infection (plaque number normalized to IL-4/13 treated controls) [3]: reversed keratinocyte susceptibility to viral infection in a dose dependent manner
